Test results from patent US20230097866A1, “BACTERIAL TOPOISOMERASE INHIBITORS DERIVED FROM ISOMANNIDE” (Ohio State Innovation Foundation, priority 2020, published 2023).
≈ marks a conversion by molar mass, not a printed value. Read-outs that look alike come from different tables or passages of the source. Marks after values point to notes of the source that are not given here.

Columns and labels:
S. aureus ATCC 29213 [1] = experiment: MIC, CLSI broth microdilution, S. aureus ATCC 29213; format: cell-based; settings: Staphylococcus aureus, ATCC29213; CLSI broth microdilution, triplicate; read-out: MIC ATCC 29213
USA300 isolate of MRSA = experiment: MIC, CLSI broth microdilution, USA300 MRSA; format: cell-based; settings: Staphylococcus aureus, read-out: MIC USA300
[2] = system: S. aureus strain isolated from a cystic fibrosis patient; experiment: MIC, CLSI broth microdilution, CF isolate; format: cell-based; settings: Staphylococcus aureus, read-out: MIC CF isolate
S. aureus DNA gyrase = S. aureus DNA gyrase (Staphylococcus aureus, UniProt P20831); experiment: Inhibition of DNA gyrase, biochemical assay (Inspiralis); settings: S. aureus DNA gyrase; Inspiralis, Ltd.; read-out: Gyrase IC50
TopoIV from S. aureus = TopoIV from S. aureus (Staphylococcus aureus, UniProt P0C1U9); experiment: biochemical; format: biochemical; settings: for IC50: S. aureus TopoIV, read-out: TopoIV IC50; for TopoIV/gyrase IC50 ratio: S. aureus enzymes
hERG = hERG (Homo sapiens, UniProt Q12809); experiment: hERG IC50, IonWorks Barracuda (Charles River)
Description: The design of these isomannide-detived NBTIs focused on enhanced polarity and modulation of basicity through the two electronegative oxygen atoms in the linker.

M. tuberculosis H37Rv = experiment: MIC, microbroth dilution, M. tuberculosis H37Rv; format: cell-based; settings: Mycobacterium tuberculosis
M. abscessus 19977 = experiment: MIC, microbroth dilution, M. abscessus; format: cell-based, Mycobacterium abscessus; settings: Mycobacteroides abscessus
Protocol: (§1) MICs were determined against the NTM strains […] avium ATCC 700891 MAC101 and M. abscessus 19977 using the microbroth dilution method. MIC was determined using optical density and a calorimetric growth indicator. For optical density ([…]), the MIC is considered the first concentration to inhibit growth when compared to an untreated growth control. A calorimetric growth indicator (i.e. Alamar Blue) was also added to confirm MIC value by observing color change from […], indicating no active growth.

M. avium 700891 = experiment: MIC, microbroth dilution, M. avium; format: cell-based; settings: Mycobacterium avium
Protocol: as §1

[3] = system: M tuberculosis H37Rv in THP-1 macrophages; experiment: Ex vivo efficacy against M. tuberculosis in THP-1 macrophages; format: cell-based, Mycobacterium tuberculosis
[4] = system: Mycobacterium avium complex (ATCC 700891 MAC 101); experiment: Ex vivo efficacy against M. avium; format: cell-based; settings: concentration for >90% inhibition
Protocol: (§2) Ex vivo efficacy was determined by inhibition of Mycobacterium avium complex (ATCC 700891 MAC 101), and Mycobacterium abscessus (ATCC 19977). Cytotoxicity tests were carried out against three human cell lines, THP-1 (ATCC TIB-202), HepG2 (ATCC HB-8065), and HeLa (ATCC CCL-2). IC50 values were calculated from dose response curves to determine cytotoxicity of test compounds.

[5] = system: Mycobacterium abscessus (ATCC 19977); experiment: Ex vivo efficacy against M. abscessus; format: cell-based; settings: concentration for >90% inhibition
Protocol: as §2

S. aureus ATCC 29213 [6] = settings: previously published data for 27 and ciprofloxacin; cited from earlier work
MRSADRL-3161 = settings: previously published data for 27 and ciprofloxacin; cited from earlier work
[7] = system: Streptococcus pyogenes LSI-1235; settings: previously published data for 27 and ciprofloxacin; cited from earlier work
[8] = system: Streptococcus pneumoniae LSI-4234; settings: penicillin-susceptible strain; previously published data for 27 and ciprofloxacin; cited from earlier work
[9] = system: Streptococcus pneumoniae LSI-4246; settings: penicillin-resistant strain; previously published data for 27 and ciprofloxacin; cited from earlier work
[10] = system: Enterococcus faecium DRL-4193; settings: vancomycin-susceptible strain; previously published data for 27 and ciprofloxacin; cited from earlier work
[11] = system: Enterococcus faecium LSI-3340; settings: vancomycin-resistant strain; previously published data for 27 and ciprofloxacin; cited from earlier work
[12] = system: Enterococcus faecalis ATCC 29212; settings: previously published data for 27 and ciprofloxacin; cited from earlier work
[13] = system: Escherichia coli ATCC 25922; settings: previously published data for 27 and ciprofloxacin; cited from earlier work
[14] = system: Pseudomonas aeruginosa LSI-2946; settings: previously published data for 27 and ciprofloxacin; cited from earlier work
[15] = system: Acinetobacter baumannii LSI-2957; settings: previously published data for 27 and ciprofloxacin; cited from earlier work
[16] = system: Klebsiella pneumoniae LSI-2999; settings: previously published data for 27 and ciprofloxacin; cited from earlier work
[17] = system: Enterobacter cloacae LSI-2943; settings: previously published data for 27 and ciprofloxacin; cited from earlier work
[18] = CLSI broth microdilution, ciprofloxacin-resistant MRSA

Chain of TopoIV from S. aureus (P0C1S7 whole entry): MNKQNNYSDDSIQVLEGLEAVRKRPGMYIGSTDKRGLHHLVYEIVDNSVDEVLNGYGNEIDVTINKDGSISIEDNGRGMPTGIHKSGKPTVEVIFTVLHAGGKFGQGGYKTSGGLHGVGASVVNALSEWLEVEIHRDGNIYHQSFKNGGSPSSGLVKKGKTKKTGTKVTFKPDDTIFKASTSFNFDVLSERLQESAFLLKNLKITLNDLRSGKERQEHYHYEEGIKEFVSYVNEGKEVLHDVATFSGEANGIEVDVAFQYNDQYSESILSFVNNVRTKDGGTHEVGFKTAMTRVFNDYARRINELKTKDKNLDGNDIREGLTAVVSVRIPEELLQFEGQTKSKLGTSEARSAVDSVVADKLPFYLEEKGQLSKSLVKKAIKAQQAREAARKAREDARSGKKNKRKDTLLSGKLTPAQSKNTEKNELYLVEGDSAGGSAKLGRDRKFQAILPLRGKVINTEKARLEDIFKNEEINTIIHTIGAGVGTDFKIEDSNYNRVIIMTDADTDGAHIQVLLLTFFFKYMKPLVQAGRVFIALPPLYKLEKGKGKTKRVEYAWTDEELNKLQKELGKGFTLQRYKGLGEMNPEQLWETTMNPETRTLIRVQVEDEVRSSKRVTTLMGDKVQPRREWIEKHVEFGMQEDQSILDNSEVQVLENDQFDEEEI
Chain of TopoIV from S. aureus (P0C1U9 whole entry): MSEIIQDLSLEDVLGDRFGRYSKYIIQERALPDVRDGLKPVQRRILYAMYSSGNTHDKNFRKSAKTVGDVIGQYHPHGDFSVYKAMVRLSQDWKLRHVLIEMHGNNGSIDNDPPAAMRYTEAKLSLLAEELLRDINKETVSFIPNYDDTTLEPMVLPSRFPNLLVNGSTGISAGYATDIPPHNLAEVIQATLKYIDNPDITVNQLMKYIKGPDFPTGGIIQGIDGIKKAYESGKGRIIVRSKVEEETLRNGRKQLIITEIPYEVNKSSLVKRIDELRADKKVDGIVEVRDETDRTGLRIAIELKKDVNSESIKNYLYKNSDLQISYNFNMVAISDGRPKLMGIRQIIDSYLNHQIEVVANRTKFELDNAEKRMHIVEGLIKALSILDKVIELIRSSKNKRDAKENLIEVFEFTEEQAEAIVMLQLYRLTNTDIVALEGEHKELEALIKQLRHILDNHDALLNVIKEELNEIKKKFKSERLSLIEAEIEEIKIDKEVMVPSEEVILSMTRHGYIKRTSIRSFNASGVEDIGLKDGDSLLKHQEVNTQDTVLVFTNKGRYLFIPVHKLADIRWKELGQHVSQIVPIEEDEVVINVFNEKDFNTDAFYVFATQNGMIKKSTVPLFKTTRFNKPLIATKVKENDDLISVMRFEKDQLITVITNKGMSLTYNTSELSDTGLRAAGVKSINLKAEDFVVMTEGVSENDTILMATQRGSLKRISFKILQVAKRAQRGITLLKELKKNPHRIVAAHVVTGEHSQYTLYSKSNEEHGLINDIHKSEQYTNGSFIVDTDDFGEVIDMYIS
Chain of S. aureus DNA gyrase (P0A0K8 whole entry): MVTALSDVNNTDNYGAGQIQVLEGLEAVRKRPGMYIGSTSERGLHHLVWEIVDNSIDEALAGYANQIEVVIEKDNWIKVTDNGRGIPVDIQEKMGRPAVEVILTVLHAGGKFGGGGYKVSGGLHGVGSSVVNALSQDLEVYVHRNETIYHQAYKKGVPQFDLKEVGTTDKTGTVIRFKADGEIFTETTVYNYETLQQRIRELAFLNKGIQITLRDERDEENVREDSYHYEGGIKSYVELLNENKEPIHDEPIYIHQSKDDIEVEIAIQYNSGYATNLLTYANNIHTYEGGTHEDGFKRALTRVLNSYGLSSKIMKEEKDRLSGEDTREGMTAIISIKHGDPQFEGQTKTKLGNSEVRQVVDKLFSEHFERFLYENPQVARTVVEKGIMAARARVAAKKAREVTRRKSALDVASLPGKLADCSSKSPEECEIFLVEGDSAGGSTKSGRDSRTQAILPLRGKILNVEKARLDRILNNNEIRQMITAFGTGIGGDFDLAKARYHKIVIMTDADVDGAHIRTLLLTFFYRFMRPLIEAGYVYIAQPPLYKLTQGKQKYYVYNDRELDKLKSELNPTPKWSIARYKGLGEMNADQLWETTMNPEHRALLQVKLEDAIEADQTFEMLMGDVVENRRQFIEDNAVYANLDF
Chain of S. aureus DNA gyrase (P20831 whole entry): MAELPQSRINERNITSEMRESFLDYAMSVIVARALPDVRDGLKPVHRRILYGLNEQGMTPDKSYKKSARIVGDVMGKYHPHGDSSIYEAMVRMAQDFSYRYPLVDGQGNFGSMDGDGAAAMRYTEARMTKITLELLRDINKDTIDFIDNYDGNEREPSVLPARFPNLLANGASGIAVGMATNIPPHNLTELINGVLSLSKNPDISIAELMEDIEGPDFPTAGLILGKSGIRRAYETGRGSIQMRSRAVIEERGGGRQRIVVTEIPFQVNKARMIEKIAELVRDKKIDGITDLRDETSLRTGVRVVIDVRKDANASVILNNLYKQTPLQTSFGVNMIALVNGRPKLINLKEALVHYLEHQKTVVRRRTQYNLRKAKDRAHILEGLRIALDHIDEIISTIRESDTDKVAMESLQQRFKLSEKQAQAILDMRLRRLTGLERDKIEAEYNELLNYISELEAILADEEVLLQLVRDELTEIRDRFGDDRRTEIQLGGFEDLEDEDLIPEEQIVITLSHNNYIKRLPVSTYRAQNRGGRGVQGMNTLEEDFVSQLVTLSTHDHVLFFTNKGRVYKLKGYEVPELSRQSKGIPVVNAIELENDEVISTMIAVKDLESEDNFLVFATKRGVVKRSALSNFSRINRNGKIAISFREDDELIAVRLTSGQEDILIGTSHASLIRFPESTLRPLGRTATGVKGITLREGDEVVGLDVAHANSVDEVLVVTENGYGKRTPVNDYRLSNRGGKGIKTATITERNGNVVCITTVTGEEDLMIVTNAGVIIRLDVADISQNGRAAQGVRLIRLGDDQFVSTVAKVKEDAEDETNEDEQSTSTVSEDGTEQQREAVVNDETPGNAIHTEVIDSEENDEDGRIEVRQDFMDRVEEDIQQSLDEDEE
Chain of hERG (Q12809 whole entry): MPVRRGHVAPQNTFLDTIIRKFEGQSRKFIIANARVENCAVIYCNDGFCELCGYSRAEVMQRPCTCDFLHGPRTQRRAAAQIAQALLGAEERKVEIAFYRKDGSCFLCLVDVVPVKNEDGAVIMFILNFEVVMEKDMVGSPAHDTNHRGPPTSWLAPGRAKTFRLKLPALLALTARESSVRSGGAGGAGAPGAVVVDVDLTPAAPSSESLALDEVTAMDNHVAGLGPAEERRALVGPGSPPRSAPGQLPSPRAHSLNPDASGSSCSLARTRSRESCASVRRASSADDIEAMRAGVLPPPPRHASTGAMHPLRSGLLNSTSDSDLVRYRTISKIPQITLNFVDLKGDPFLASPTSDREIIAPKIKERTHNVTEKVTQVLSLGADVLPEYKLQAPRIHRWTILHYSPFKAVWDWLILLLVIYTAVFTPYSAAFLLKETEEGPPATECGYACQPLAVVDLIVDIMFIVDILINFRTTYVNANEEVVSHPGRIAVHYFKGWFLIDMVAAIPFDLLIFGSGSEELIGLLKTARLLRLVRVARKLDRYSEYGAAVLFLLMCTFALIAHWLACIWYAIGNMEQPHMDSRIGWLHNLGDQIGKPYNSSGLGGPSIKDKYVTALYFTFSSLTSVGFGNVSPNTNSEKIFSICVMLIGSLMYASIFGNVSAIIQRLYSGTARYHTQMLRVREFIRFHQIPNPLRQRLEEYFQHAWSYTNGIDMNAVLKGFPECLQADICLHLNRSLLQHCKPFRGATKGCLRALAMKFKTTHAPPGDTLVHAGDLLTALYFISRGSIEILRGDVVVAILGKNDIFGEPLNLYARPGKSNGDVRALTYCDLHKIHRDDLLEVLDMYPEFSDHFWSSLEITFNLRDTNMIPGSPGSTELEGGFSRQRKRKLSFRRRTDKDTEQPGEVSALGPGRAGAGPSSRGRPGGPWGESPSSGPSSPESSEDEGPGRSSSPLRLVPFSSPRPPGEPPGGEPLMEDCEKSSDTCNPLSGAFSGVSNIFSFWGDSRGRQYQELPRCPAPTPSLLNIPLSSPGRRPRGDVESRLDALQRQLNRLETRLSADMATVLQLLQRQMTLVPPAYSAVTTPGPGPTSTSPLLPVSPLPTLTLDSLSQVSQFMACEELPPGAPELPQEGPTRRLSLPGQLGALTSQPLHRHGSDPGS

SMILES | MIC (S. aureus ATCC 29213 [1]) [µg/mL] | MIC (USA300 isolate of MRSA; [18]) [µg/mL] | MIC ([2]; CLSI broth microdilution) [µg/mL] | IC50 (S. aureus DNA gyrase) [nM] | IC50 (TopoIV from S. aureus) [nM] | TopoIV/gyrase IC50 ratio (TopoIV from S. aureus) | MIC (M. tuberculosis H37Rv) [µg/mL] | MIC (M. abscessus 19977) [µg/mL] | MIC (M. avium 700891) [µg/mL] | M. tuberculosis ex vivo efficacy (% inhibition at MIC) [3] [%] | Ex vivo efficacy M. avium (>90% inhibition) [4] [µg/mL] | Ex vivo efficacy M. abscessus (>90% inhibition) [5] [µg/mL] | MIC Streptococcus pyogenes LSI-1235 [7] [µg/mL] | MIC Streptococcus pneumoniae LSI-4246 [9] [µg/mL] | MIC Enterococcus faecium DRL-4193 [10] | MIC Enterococcus faecalis ATCC 29212 [12] [µg/mL] | MIC Escherichia coli ATCC 25922 (n = 2) [13] [µg/mL] | MIC Pseudomonas aeruginosa LSI-2946 [14] [µg/mL] | MIC Acinetobacter baumannii LSI-2957 [15] [µg/mL] | MIC Klebsiella pneumoniae LSI-2999 [16] [µg/mL] | also measured
COc1ccc2ncc(F)c(CC[C@@]3(O)CO[C@@H]4[C@@H](NCc5ccc(C)cc5)CO[C@@H]43)c2n1 [Compound 25, (3R,3aS,6S,6aR)-3-(2-(3-fluora-6-methoxy-1,5-naphthyridin-4-yl)ethyl)-6-((4-methyllbenzyl)amino)hexahydrofuro[3,2-b]furan-3-ol] | 1 to 2 (≈ 2.21 to 4.41 µM) | 2 (≈ 4.41 µM) | 2 (≈ 4.41 µM) | 180 | 7500 | 42 | 8 (≈ 17.6 µM) | 8 (≈ 17.6 µM) | 16 (≈ 35.3 µM) | 80 | >128 | >128 | – | – | – | – | – | – | – | – | IC50 (hERG; read-out: hERG IC50, IonWorks Barracuda): 4.2 µM
COc1ccc2ncc(F)c(CC[C@@]3(O)CO[C@@H]4[C@@H](NCc5ccc(Cl)c(Cl)c5)CO[C@@H]43)c2n1 [Compound 26, (3R,3aS,6S,6aR)-6-((3,4-dichlorobenzyl)amino)-3-(2-(3-fluoro-6-methoxy-1,5-napkthyridin-4-yl)ethyl)hexahydrofuro[3,2-b]-furan-3-ol] | 0.25 to 0.5 (≈ 0.492 to 0.984 µM) | 0.5 (≈ 0.984 µM) | 0.5 (≈ 0.984 µM) | 200 | 2900 | – | 2 (≈ 3.93 µM) | 8 (≈ 15.7 µM) | 1 (≈ 1.97 µM) | 90 | >128 | 32 | – | – | – | – | – | – | – | – | –
COc1ccc2ncc(F)c(CCC3OCC(NCc4ccc5c(c4)OCCO5)CO3)c2n1 (stereo not drawn) [Compound 27] | ≤ 0.25 | 0.125 to 0.25 (≈ 0.274 to 0.549 µM) | 0.25 (≈ 0.549 µM) | 30 | 1000 | 33 | – | – | – | – | – | – | ≤0.06 | ≤0.06 | 0.12^f μg/mL | 0.5 (≈ 1.1 µM) | 16 (≈ 35.1 µM) | 4 (≈ 8.78 µM) | 2 (≈ 4.39 µM) | >64 | IC50 (hERG): 8 µM; MIC S. aureus ATCC 29213 (n = 3) (S. aureus ATCC 29213 [6]): ≤0.06^b μg/mL; MIC MRSADRL-3161 (MRSADRL-3161): ≤0.06 µg/mL; MIC Streptococcus pneumoniae LSI-4234 [8]: 0.25 µg/mL (≈ 0.549 µM); MIC Enterococcus faecium LSI-3340 [11]: 0.12 µg/mL (≈ 0.263 µM); MIC Enterobacter cloacae LSI-2943 [17]: 32 µg/mL (≈ 70.3 µM)
O=C(O)c1cn(C2CC2)c2cc(N3CCNCC3)c(F)cc2c1=O [ciprofloxacin] | – | – | – | – | – | – | – | – | – | – | – | – | 0.25 (≈ 0.754 µM) | 0.5 (≈ 1.51 µM) | 0.25 µg/mL (≈ 0.754 µM) | 0.5 (≈ 1.51 µM) | ≤0.06 | 0.5 (≈ 1.51 µM) | 0.25 (≈ 0.754 µM) | 0.25 (≈ 0.754 µM) | –
CN[C@H](CC(C)C)C(=O)N[C@H]1C(=O)N[C@@H](CC(N)=O)C(=O)N[C@H]2C(=O)N[C@H]3C(=O)N[C@H](C(=O)N[C@H](C(=O)O)c4cc(O)cc(O)c4-c4cc3ccc4O)[C@H](O)c3ccc(c(Cl)c3)Oc3cc2cc(c3O[C@@H]2O[C@H](CO)[C@@H](O)[C@H](O)[C@H]2O[C@H]2C[C@](C)(N)[C@H](O)[C@H](C)O2)Oc2ccc(cc2Cl)[C@H]1O [vancomycin, reference compound] | – | – | – | – | – | – | – | – | – | – | – | – | – | – | – | – | – | – | – | – | MIC (USA300 isolate of MRSA): 1 to 2 µg/mL (≈ 0.69 to 1.38 µM); MIC [2]: 1 to 2 µg/mL (≈ 0.69 to 1.38 µM)
